Source: patent US5968526A, “T cell epitopes of the major allergens from Dermatophagoides (house dust mite)” (Immulogic Pharamaceutical Corporation, priority 1995, dated 1999)

Tests used:
[1] = system: T cell lines primed in vitro to Der p I; test: secondary proliferation of Der p I-primed T cell lines (Examples V, VII, XI); assay type: cell-based, human; conditions: for T cell reactivity: overlapping Der p I peptides
Method in brief: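 PBMC were primed with native or recombinant Der p I (10 or 20 μg/ml) for 7 days, then expanded with IL-2 and IL-4. Resting T cells (2×10^4) were cultured 3 days with irradiated autologous EBV-B cells or PBMC and titrated protein or peptides, then pulsed 16 h with 1 μCi ³H-thymidine. S.I. was peak-response CPM over medium-only CPM, with S.I. ≥2.0 scored positive.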

[2] = system: T cell cultures reactive with Der p I from house dust mite-allergic subjects; test: secondary T cell proliferation assay, Group I (Der p I) overlapping and candidate/unique peptides; percent of T cell reactivity; assay type: cell-based, human; conditions: patient 1733; for T cell stimulation index (S.I.): highest S.I. ≥2.0 recorded
Excerpt: To determine whether a peptide (candidate peptide) or a combination of candidate peptides are likely to comprise a sufficient percentage of the T cell reactivity of house dust mite protein allergens, to induce T cell nonresponsiveness in a substantial percentage of a population of individuals sensitive to house dust mite allergen, an algorithm can be used. In accordance with one such algorithm, a set of overlapping peptides is produced by systematically dividing the protein allergen(s) of interest into al least two overlapping peptide regions of desired lengths (e.g., of about 12-30 amino acid residues in length, preferably not longer than about 25 amino acid residues in length with about 5-15 amino acid residues of overlap). This division into peptide regions can be arbitrary, can be made according to an algorithm, or can be wholly or partially based on regions of house dust mite Group I and/or Group II protein allergens known to comprise at least one T cell epitope. Preferably, at least 50% of the entire house dust mite protein allergen sequence and more preferably, the entire house dust mite protein allergen sequence is divided into two or more peptides. A human T cell stimulation index is determined for each of the peptides in an in vitro T cell proliferation assay as described herein for each individual tested in a population of individuals sensitive to the protein antigen. For example both WO93/08279 and WO94/24281 disclose T cell studies with overlapping peptides derived from Der p I, Der p II, Der f I and Der f II. A candidate peptide or combination of candidate peptides is selected based, at least in part, on the mean human T cell stimulation index of the candidate peptide in the set of peptides tested and the positivity index of the candidate peptide in the set of peptides tested (see, FIGS. 3 and 4). The human T cell stimulation index for the candidate peptide(s) is summed. For each individual, the human T cell stimulation index for the candidate peptide(s) is divided by the sum of the human T cells stimulation indices of the remaining peptides in the set of peptides tested to determine a percent of T cell reactivity as shown below:
Alternatively, the presence of T cell epitopes in the candidate peptide dependent on amino acids residues in an overlapping peptide located at either the N-terminus or C-terminus of the candidate peptide in the amino acid sequence of the protein antigen, but which epitopes are not present in the candidate peptide can be considered in calculating the percent of T cell reactivity in the candidate peptide by use of the following formula: [formula]
In this formula, "NT flanking peptide" refers to a peptide which comprises amino acid residues which overlap with amino acid residues located at the N-terminus of the candidate peptide in the amino acid sequence of the protein antigen from which the peptide is derived; "CT flanking peptide" refers to a peptide which comprises amino acid residues which overlap with amino acid residues located a the C-terminus of the candidate peptide in the amino acid sequence of the protein antigen from which the peptide is derived. In this calculation stimulation indices for the candidate peptide, the N-terminal flanking peptide and the C-terminal flanking peptide are added and divided by the sum total of the stimulation indices for the entire set of overlapping peptides obtain a percent of T cell reactivity for the candidate peptide. If a combination of two or more candidate peptides is selected each of which contains amino acid residues which overlap, this calculation cannot be used to determine a percent of T cell reactivity for each candidate peptide separately. However, a total percent of T cell reactivity for the combination of candidate peptides can be obtained. In this situation, the stimulation indices for all of the candidate peptides which overlap is included in the calculation. […]

| Substance | T cell reactivity ([1]; 33 positive experiments) | T cell stimulation index (S.I.) [2] | other results |
| --- | --- | --- | --- |
| DF I-22.2: VAATESAYLAYRNTSLDLSEQELVD, amino acid residues 40-64 of Der f I |  |  | T cell response to selected Der f I peptides ([1]; Der p I primed, 30 positive experiments, FIG. 15a): respond significantly |
| DP I-1: Der p I peptide, amino acid residues 1-20 (TNACSINGNAPAEIDLRQMR) | significant regions of T cell reactivity |  | percent of positive responses (S.I. of at least 2) ([1]; 33 patients): 73% |
| DP I-3: Der p I peptide (TVTPIRMQGGCGSCWAFSGVAATESAYLA) | significant regions of T cell reactivity | 3.9 |  |
| DP I-21.2: Der p I peptide; unique peptide (SINGNAPAEIDLRQMRTVTPIRMQ) |  | 3.6 | T cell response to selected Der p I peptides ([1]; 33 positive experiments, FIG. 13): respond significantly; positivity index (P.I.) ([1]; mean S.I. × percent responders, 33 patients): at least 150 |
| DP I-23.31: modified Der p I peptide; unique peptide (DEEGVVQESYYRYVAREQSCRRPNAE) |  | 5.7 |  |
| DP I-26.6: modified Der p I peptide; unique peptide (DEGIKDLDAFRHYDGRTIIQRDNGYE) |  | 5.0 | estimated range of T cell reactivity (% reactivity of peptide) ([2]; of total reactivity of the Der p I protein): 12.3%-24 |
